Assays:
[1] = target: T1, human SPR (Homo sapiens (Human), UniProt P35270); experiment: Evaluation Example 1: Measurement of human SPR inhibitory activity (sepiapterin absorbance at 420 nm); format: biochemical; details: 240 minutes at room temperature
Experimental: Human SPR was prepared as described below. The full-length human SPR (1-261) cDNA was purchased from Eurofins Genomics as an artificially synthesized plasmid containing a DNA sequence optimized for the E. coli expression system so that the sequence of the expressed protein after transcription and translation matches the sequence described in UniprotKB (P35270).
Linearized insert and vector were prepared by PCR using primers designed for amplification of human SPR cDNA and primers designed to contain the thrombin recognition sequence of pET28a (Novagen) and a polyhistidine tag. Cloning was performed using In-Fusion (registered trademark) HD Cloning Kit (TaKaRa) to thereby construct a human SPR expression plasmid. The resultant human SPR expression plasmid was transformed into BL21 (DE3) competent cells (INVITROGEN).
The cells were inoculated into LB medium (1% triptone, 0.5% yeast extract, 1% sodium chloride) containing […] of kanamycin, and then precultured at 37° C. overnight. The precultured cells were inoculated into TB medium (1.2% triptone, 2.4% yeast extract, 9.4% dipotassium hydrogen phosphate, 2.2% potassium dihydrogen phosphate, 0.8% glycerin) containing […] of kanamycin, and the cultured at 37° C., to thereby induce SPR expression with 0.5 mM IPTG for four hours. After the induction, the cells were collected by centrifugation at 6,000 G for 30 minutes and washed with PBS, and the washing was discarded. The washed cells were suspended in buffer solution A (20 mM MES, pH 6.5, 100 mM sodium chloride, 1 mM DTT, 5 mM imidazole). Subsequently, the cell suspension was subjected to ultrasonic treatment to thereby homogenize the cells. The cell homogenate was clarified by centrifugation at 30,000 G for 60 minutes and then filtered with a […]. The filtrate was allowed to pass through HisTrapFF 5 mL column (GE Healthcare). The resin was washed with buffer A, and then gradient elution was performed with buffer B (20 mM MES, pH 6.5, 100 mM sodium chloride, 1 mM DTT, 500 mM imidazole). Thrombin was added to a fraction containing the SPR protein, and the mixture was dialyzed in buffer A overnight, to thereby cleave the tag. After removal of the thrombin by with Benzamidine Sepharose 4 FF (GE Healthcare), the resultant product was allowed to pass through the HisTrapFF 5 mL column, to thereby remove the tag, followed by concentration with Amicon Ultra 10,000 NMWL (Merck Millipore). The concentrate was purified by gel filtration using HiLoad 16/60 Superdex 75 pg (GE Healthcare) equilibrated with buffer C (20 mM MES, pH 6.5, 100 mM sodium chloride, 1 mM DTT). The fraction containing SPR protein was concentrated and then cryopreserved at −80° C.
Human SPR inhibitory activity was measured by using a 384-well low adsorption clear plate (Greiner) with buffer D containing 100 mM Tris-HCl (pH 7.5) (Thermo Fisher Scientific) and 0.01% bovine serum albumin (Sigma). A compound was diluted with DMSO to a concentration of 1 mM, and a 1 μL aliquot of the preparation was diluted with 250 μL of buffer D. The thus-diluted compound was dispensed into the 384-well plate at […]. Thereafter, human SPR was diluted with buffer D to 200 ng/mL and then dispensed into the 384-well plate at 20 μL/well. Subsequently, 40 μL of ultrapure water containing 120 μM Sepiapterin (WuXi AppTec) and 120 μM NADPH (Nacalai) was added to each well, and mixed with a vortex mixer, to thereby initiate the reaction. The reaction mixture was incubated at room temperature for 240 minutes, and the reaction was terminated by addition of 10 μL of ultrapure water containing 2% formic acid (Nacalai). In order to determine the amount of sepiapterin after termination of the reaction, the absorbance at 420 nm was measured by applying the 384-well plate to EnSpire multimode plate reader (Perkin Elmer). The percent inhibition (%) of human SPR by the test compound was calculated by the following formula. […]

[2] = target: T1, human SPR; experiment: Evaluation Example 2: Measurement of human SPR inhibitory activity (seven concentrations, sepiapterin absorbance at 420 nm); format: biochemical; details: Evaluation Example 2, seven concentrations 0.14 nM to 100 nM, 240 minutes at room temperature, read-out: IC50
Summary of the method: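 Reactions ran 240 min at room temperature in 100 mM Tris-HCl pH 7.5 with 0.01% BSA. They contained tag-cleaved, E. coli-expressed full-length human SPR (diluted to 150 ng/mL), seven compound concentrations from 0.14 to 100 nM, and sepiapterin/NADPH added as a 120 μM/160 μM solution. Inhibition was calculated from sepiapterin absorbance at 420 nm.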

T1 sequence (P35270 whole entry): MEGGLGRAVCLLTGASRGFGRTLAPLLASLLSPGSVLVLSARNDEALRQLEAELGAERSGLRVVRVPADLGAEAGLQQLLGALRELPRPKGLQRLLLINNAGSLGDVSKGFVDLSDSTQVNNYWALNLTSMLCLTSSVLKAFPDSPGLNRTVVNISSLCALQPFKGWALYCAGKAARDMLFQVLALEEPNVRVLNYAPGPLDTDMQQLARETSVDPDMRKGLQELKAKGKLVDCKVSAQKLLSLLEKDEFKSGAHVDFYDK

Q: Which IC50 [1] does the source give for CC(C)Cn1c(=O)c(C(=O)NC2CC2)c(O)n2ncc(/C=C/C(=O)N3CCOCC3)c12 [Synthesis Example 10, (E)-N-Cyclopropyl-7-hydroxy-4-isobutyl-3-(3-morpholino-3-oxoprop-1-en-1-yl)-5-oxo-4,5-dihydropyrazolo[1,5-a]pyrimidine-6-carboxamide] here?
A: Its IC50 is under 1000 nM.

Q: What about the IC50 [2] of the same molecule?
A: The IC50 was 0.68 nM.

Q: Which results are given for CC(C)(C)Cn1c(=O)c(C(=O)NC2CC2)c(O)n2nc(Nc3ccncn3)cc12 [Synthesis Example 12, N-Cyclopropyl-7-hydroxy-4-neopentyl-5-oxo-2-(pyrimidin-4-ylamino)-4,5-dihydropyrazolo[1,5-a]pyrimidine-6-carboxamide]?
A: IC50 [1]: < 1000 nM; IC50 [2]: 1.41 nM

Q: CC(C)(C)Cn1c(=O)c(C(=O)NC2CC2)c(O)n2nc(Nc3cnccn3)cc12 [Synthesis Example 13, N-Cyclopropyl-7-hydroxy-4-neopentyl-5-oxo-2-(pyrazin-2-ylamino)-4,5-dihydropyrazolo[1,5-a]pyrimidine-6-carboxamide] was tested. Which IC50 [1] did it give?
A: The IC50 was under 1000 nM.

Q: And the IC50 [2]?
A: The IC50 was 1.43 nM.

Q: Which results are given for CC(C)(C)Cn1c(=O)c(C(=O)NC2CC2)c(O)n2nc(-c3cccnc3N)cc12 [Synthesis Example 14, 2-(2-Aminopyridin-3-yl)-N-cyclopropyl-7-hydroxy-4-neopentyl-5-oxo-4,5-dihydropyrazolo[1,5-a]pyrimidine-6-carboxamide]?
A: IC50 [1]: < 1000 nM; IC50 [2]: 1.19 nM

Q: Which results are given for CC(C)(C)Cn1c(=O)c(C(=O)NC2CC2)c(O)n2nc(Nc3cnc(C(F)(F)F)cn3)cc12 [Synthesis Example 15, N-Cyclopropyl-7-hydroxy-4-neopentyl-5-oxo-2-((5-(trifluoromethyl)pyrazin-2-yl)amino)-4,5-dihydropyrazolo[1,5-a]pyrimidine-6-carboxamide]?
A: IC50 [1]: < 1000 nM; IC50 [2]: 1.61 nM

Q: COc1cnc(Nc2cc3n(CC(C)(C)C)c(=O)c(C(=O)NC4CC4)c(O)n3n2)cn1 [Synthesis Example 16, N-Cyclopropyl-7-hydroxy-2-((5-methoxypyrazin-2-yl)amino)-4-neopentyl-5-oxo-4,5-dihydropyrazolo[1,5-a]pyrimidine-6-carboxamide] was tested. Which IC50 [1] did it give?
A: Its IC50 is under 1000 nM.

Q: What about the IC50 [2] of the same molecule?
A: The IC50 was 1.96 nM.

Q: Which results are given for COc1cncc(Nc2cc3n(CC(C)(C)C)c(=O)c(C(=O)NC4CC4)c(O)n3n2)n1 [Synthesis Example 17, N-Cyclopropyl-7-hydroxy-2-((6-methoxypyrazin-2-yl)amino)-4-neopentyl-5-oxo-4,5-dihydropyrazolo[1,5-a]pyrimidine-6-carboxamide]?
A: IC50 [1]: < 1000 nM; IC50 [2]: 0.76 nM

Q: Which IC50 [1] does the source give for CC(C)(C)Cn1c(=O)c(C(=O)NC2CC2)c(O)n2nc(N)cc12 [Synthesis Example 18, 2-Amino-N-cyclopropyl-7-hydroxy-4-neopentyl-5-oxo-4,5-dihydropyrazolo[1,5-a]pyrimidine-6-carboxamide] here?
A: The IC50 was under 1000 nM.

Q: What about the IC50 [2] of the same molecule?
A: Its IC50 is 0.89 nM.

Q: Which IC50 [1] does the source give for CC(C)(C)Cn1c(=O)c(C(=O)NC2CC2)c(O)n2nc(Nc3cnc(C(N)=O)cn3)cc12 [Synthesis Example 21, 2-((5-Carbamoylpyrazin-2-yl)amino)-N-cyclopropyl-7-hydroxy-4-neopentyl-5-oxo-4,5-dihydropyrazolo[1,5-a]pyrimidine-6-carboxamide] here?
A: Its IC50 is under 1000 nM.

Q: And the IC50 [2]?
A: Its IC50 is 0.96 nM.

Q: Which results are given for CC(C)Cn1c(=O)c(C(=O)NC2CC2)c(O)n2nc(Nc3cnccn3)cc12 [Synthesis Example 23, N-Cyclopropyl-7-hydroxy-4-isobutyl-5-oxo-2-(pyrazin-2-ylamino)-4,5-dihydropyrazolo[1,5-a]pyrimidine-6-carboxamide]?
A: IC50 [1]: < 1000 nM; IC50 [2]: 1.91 nM

Q: CC(C)(C)Cn1c(=O)c(C(=O)NC2CC2)c(O)n2nc(NC(N)=O)cc12 [Synthesis Example 32, N-Cyclopropyl-7-hydroxy-4-neopentyl-5-oxo-2-ureido-4,5-dihydropyrazolo[1,5-a]pyrimidine-6-carboxamide] was tested. Which IC50 [1] did it give?
A: Its IC50 is under 1000 nM.

Q: What about the IC50 [2] of the same molecule?
A: Its IC50 is 3.08 nM.

Q: What does the source list for CC(C)(C)Cn1c(=O)c(C(=O)NC2CC2)c(O)n2nc(C(N)=O)cc12 [Synthesis Example 33, N6-Cyclopropyl-7-hydroxy-4-neopentyl-5-oxo-4,5-dihydropyrazolo[1,5-a]pyrimidine-2,6-dicarboxamide]?
A: IC50 [1]: < 1000 nM; IC50 [2]: 0.65 nM

Q: With COc1ccnc(Nc2cc3n(CC(C)(C)C)c(=O)c(C(=O)NC4CC4)c(O)n3n2)c1 [Synthesis Example 195, N-Cyclopropyl-7-hydroxy-2-((4-methoxypyridin-2-yl)amino)-4-neopentyl-5-oxo-4,5-dihydropyrazolo[1,5-a]pyrimidine-6-carboxamide] as the molecule, how does the IC50 [1] read?
A: The IC50 was under 1000 nM.

From patent US20240092784A1, “CONDENSED HETEROCYCLIC COMPOUND” (NISSAN CHEMICAL CORPORATION, priority 2020, published 2024)
